From ChEMBL document CHEMBL1201862, “PubChem BioAssay data set” (2004)
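Protocol summary: plate cells (96-well), add compound at 5 concentrations, incubate 48 h, interpolate endpoints linearly. GI50 = concentration required for 50% inhibition of growth.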 Active and inactive are the calls of the source. No stated cut-off is given here; in the data, active = GI50 up to about 1.1 µM and inactive = higher.

What was measured:
Assay in all cases: inhibition of tumour cell growth, NCI panel, 48 h
A498 = tested on: A498
ACHN = tested on: ACHN
SR = tested on: SR
HOP-62 = tested on: HOP-62
SW-620 = tested on: SW-620
U-251 = tested on: U-251
HCT-116 = tested on: HCT-116
IGROV-1 = tested on: IGROV-1
OVCAR-3 = tested on: OVCAR-3
KM12 = tested on: KM12
MDA-MB-231 = tested on: MDA-MB-231
CCRF-CEM = tested on: CCRF-CEM
RPMI-8226 = tested on: RPMI-8226
MCF7 = tested on: MCF7
SNB-19 = tested on: SNB-19
NCI-H522 = tested on: NCI-H522
HCC 2998 = tested on: HCC 2998
CAKI-1 = tested on: CAKI-1
NCI-H460 = tested on: NCI-H460

Measured: GI50

CCOC(=O)Cc1c(C)c2ccc(OC(C)=O)c(OC(C)=O)c2oc1=O
inactive: A498 44.1 µM | ACHN 33.8 µM | SR 14.3 µM | HOP-62 40.6 µM | SW-620 20.7 µM | U-251 23.1 µM | HCT-116 34 µM | IGROV-1 15.3 µM | OVCAR-3 20.1 µM | KM12 32.7 µM | MDA-MB-231 37.1 µM | CCRF-CEM 4.09 µM | RPMI-8226 18.3 µM | MCF7 24.6 µM | SNB-19 13.3 µM

CC1CCCC(C(O)CC2CC(=O)N(c3ccccc3)C(=O)C2)C1=O (stereo unspecified)
inactive: NCI-H522 > 100 µM | A498 > 100 µM | ACHN > 100 µM | SR > 100 µM | HOP-62 > 100 µM | HCC 2998 > 100 µM | SW-620 > 100 µM | U-251 > 100 µM | HCT-116 > 100 µM | IGROV-1 > 100 µM | CAKI-1 > 100 µM | OVCAR-3 > 100 µM | KM12 > 100 µM | NCI-H460 > 100 µM | CCRF-CEM > 100 µM | RPMI-8226 > 100 µM | SNB-19 > 100 µM

O=[N+]([O-])c1ccc(-n2nnc(C3=NCCN3)c2-c2ccccc2)cc1
inactive: NCI-H522 > 100 µM | A498 > 100 µM | ACHN > 100 µM | SR > 100 µM | HOP-62 > 100 µM | HCC 2998 > 100 µM | SW-620 > 100 µM | U-251 > 100 µM | HCT-116 > 100 µM | IGROV-1 > 100 µM | CAKI-1 > 100 µM | OVCAR-3 > 100 µM | KM12 > 100 µM | NCI-H460 > 100 µM | CCRF-CEM > 100 µM | RPMI-8226 > 100 µM | SNB-19 > 100 µM

N#CC1=C(Cl)NC(Cl)=C(C#N)C1c1ccc(Cl)cc1
inactive: NCI-H522 13 µM | A498 32.4 µM | ACHN 17.7 µM | SR 21.7 µM | HOP-62 18.1 µM | HCC 2998 19.1 µM | SW-620 13.5 µM | U-251 16.3 µM | HCT-116 20.2 µM | IGROV-1 18.2 µM | CAKI-1 17.9 µM | OVCAR-3 14 µM | KM12 17.6 µM | NCI-H460 17 µM | CCRF-CEM 25 µM | RPMI-8226 17.5 µM | SNB-19 16.6 µM

COC(=O)c1c[nH]c2nc(N3CCOCC3)nn2c1=O
inactive: NCI-H522 > 100 µM | A498 > 100 µM | ACHN > 100 µM | SR > 100 µM | HOP-62 > 100 µM | HCC 2998 > 100 µM | SW-620 > 100 µM | U-251 > 100 µM | HCT-116 > 100 µM | IGROV-1 1.84 µM | CAKI-1 > 100 µM | OVCAR-3 > 100 µM | KM12 > 100 µM | NCI-H460 > 100 µM | CCRF-CEM > 100 µM | RPMI-8226 > 100 µM | SNB-19 > 100 µM

O=c1c2ccccc2nc(Cc2nc(-c3ccc(Cl)cc3)cs2)n1-c1ccc(Cl)cc1
inactive: NCI-H522 > 100 µM | A498 68.1 µM | ACHN 37 µM | HOP-62 > 100 µM | HCC 2998 80 µM | SW-620 91.8 µM | U-251 54.5 µM | HCT-116 37.2 µM | IGROV-1 45.2 µM | CAKI-1 > 100 µM | OVCAR-3 94.2 µM | KM12 41.8 µM | NCI-H460 46.2 µM | MDA-MB-231 > 100 µM | CCRF-CEM 17.6 µM | RPMI-8226 23.8 µM | MCF7 46.9 µM | SNB-19 > 100 µM

CC1(C)C(=O)C=CC2(C)C1CC(O)C1(C)C2CCC2(C)C(c3ccoc3)OC(=O)C3OC321 (stereo unspecified)
inactive: NCI-H522 11.5 µM | A498 15.3 µM | ACHN 14.1 µM | HOP-62 24.4 µM | HCC 2998 13.4 µM | SW-620 19.8 µM | U-251 17.4 µM | HCT-116 15.3 µM | IGROV-1 14.3 µM | CAKI-1 11.7 µM | OVCAR-3 13.9 µM | KM12 14.9 µM | NCI-H460 13.6 µM | MDA-MB-231 15.8 µM | CCRF-CEM 23.1 µM | RPMI-8226 18.5 µM | MCF7 28.8 µM | SNB-19 18.9 µM

CC1(C)OC[C@@H]([C@H](O)C2C=CC(=O)S2)O1 (stereo partly specified)
inactive: A498 21.4 µM | ACHN 19.2 µM | HOP-62 47.9 µM | HCC 2998 16.6 µM | SW-620 32 µM | U-251 27.7 µM | HCT-116 14.3 µM | CAKI-1 28.1 µM | OVCAR-3 50.5 µM | KM12 14.6 µM | NCI-H460 28.2 µM | MDA-MB-231 30.8 µM | CCRF-CEM 24.1 µM | RPMI-8226 18.4 µM | MCF7 30.2 µM | SNB-19 43.6 µM

C=CCN(C(=O)OC(C)(C)C)C1=CC2C(C)=CN(S(=O)(=O)c3ccccc3)C2C(OCc2ccccc2)=C1 (stereo unspecified)
inactive: NCI-H522 > 100 µM | ACHN > 100 µM | HOP-62 > 100 µM | HCC 2998 > 100 µM | SW-620 > 100 µM | U-251 > 100 µM | HCT-116 54 µM | IGROV-1 > 100 µM | CAKI-1 > 100 µM | OVCAR-3 > 100 µM | KM12 > 100 µM | NCI-H460 > 100 µM | MDA-MB-231 > 100 µM | CCRF-CEM > 100 µM | RPMI-8226 > 100 µM | MCF7 > 100 µM

CC1(C)CC(=O)C(=CN2C(=O)CNC2=S)C(=O)C1
inactive: NCI-H522 > 100 µM | ACHN > 100 µM | HOP-62 > 100 µM | HCC 2998 > 100 µM | SW-620 > 100 µM | U-251 > 100 µM | HCT-116 > 100 µM | IGROV-1 > 100 µM | CAKI-1 > 100 µM | OVCAR-3 > 100 µM | KM12 > 100 µM | NCI-H460 > 100 µM | MDA-MB-231 > 100 µM | CCRF-CEM > 100 µM | MCF7 > 100 µM | SNB-19 > 100 µM

N#C/C(=C\c1cc(Br)c(O)c(Br)c1)c1ccccn1
inactive: NCI-H522 64.9 µM | ACHN 90.6 µM | SR > 100 µM | HOP-62 53.2 µM | HCC 2998 42.9 µM | SW-620 63.5 µM | U-251 22.9 µM | HCT-116 > 100 µM | IGROV-1 > 100 µM | CAKI-1 > 100 µM | OVCAR-3 49.3 µM | KM12 39.1 µM | NCI-H460 48.6 µM | CCRF-CEM 34.1 µM | RPMI-8226 73.5 µM | MCF7 89.3 µM | SNB-19 46.1 µM

Cc1c(C(=O)/C=C/c2ccccc2)[n+]([O-])c2ccccc2[n+]1[O-]
inactive: NCI-H522 6.62 µM | A498 15.8 µM | ACHN 17.7 µM | SR 23.2 µM | HOP-62 18.1 µM | HCC 2998 16.6 µM | SW-620 14.8 µM | U-251 15.3 µM | HCT-116 15.8 µM | IGROV-1 17.5 µM | CAKI-1 17.5 µM | OVCAR-3 15.1 µM | KM12 15.9 µM | NCI-H460 17.6 µM | CCRF-CEM 22.2 µM | RPMI-8226 17.8 µM | SNB-19 15.7 µM
